Laboratory results reported in US12336981B2, “Compounds and compositions for the inhibition of NAMPT” (Valo Health, Inc., priority 2010, dated 2025).
Like-named read-outs stand apart in the source and are kept apart here.

What was measured:
NAMPT = target: T1, NAMPT (Homo sapiens, UniProt P43490); experiment: Biochemical inhibition assay: NAMPT enzymatic reaction, NMN quantified by mass spectrometry; conditions: read-out: Biochem IC50
T1 construct: His tag; host or cells: E. coli
In short: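 Inhibition of E. coli-expressed His-tagged human NAMPT, measured as NMN formation by mass spectrometry after a 30 min room-temperature reaction containing 1 μM NAM, 100 μM PRPP and 2.5 mM ATP.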

A2780 cells = experiment: In-vitro cell proliferation assay (SRB), A2780 cells; type: cell-based; conditions: A2780 cells, 72 hours, read-out: A2780 IC50
In short: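 SRB read-out: 6% TCA fix 1 h at 4° C., stain, Tris solubilize, A570. Media-only background subtracted; % inhibition from two compound concentrations.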

[1] = Homo sapiens, A2780, 72 h, SRB assay

T1 sequence (P43490 whole entry): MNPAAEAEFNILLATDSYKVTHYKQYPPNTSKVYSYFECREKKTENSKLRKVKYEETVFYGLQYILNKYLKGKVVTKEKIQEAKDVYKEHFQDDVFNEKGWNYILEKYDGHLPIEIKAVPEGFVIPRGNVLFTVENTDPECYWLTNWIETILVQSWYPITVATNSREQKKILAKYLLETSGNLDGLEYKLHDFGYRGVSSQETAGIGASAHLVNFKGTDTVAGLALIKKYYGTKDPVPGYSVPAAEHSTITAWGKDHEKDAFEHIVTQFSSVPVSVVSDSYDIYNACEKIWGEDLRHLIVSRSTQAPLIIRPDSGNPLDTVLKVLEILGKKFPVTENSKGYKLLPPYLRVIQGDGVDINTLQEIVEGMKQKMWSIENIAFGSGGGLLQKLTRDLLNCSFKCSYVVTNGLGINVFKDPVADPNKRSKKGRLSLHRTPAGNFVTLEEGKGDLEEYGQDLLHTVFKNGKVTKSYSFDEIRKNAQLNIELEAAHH

Row | Compound | IC50 (NAMPT; NAMPT enzymatic reaction) [nM] | IC50 (A2780 cells; [1]) [nM] | IC50 (A2780 cells; Homo sapiens, A2780, 72 h, SRB) [nM] | IC50 (NAMPT; NAMPT enzymatic assay) [nM] | IC50 (A2780 cells; SRB) [nM]
1 | O=C(NCc1ccc(S(=O)(=O)c2ccccc2)cc1)c1cnc2[nH]ccc2c1 [N-{[4-(benzenesulfonyl)phenyl]methyl}-1H-pyrrolo[2,3-b]pyridine-5-carboxamide] | 1910 | > 30000 |  |  | 
2 | CCCOc1ccc(S(=O)(=O)c2ccc(CNC(=O)c3cnc4[nH]ncc4c3)cc2)c(C)c1 | 64.4 |  | 79.4 |  | 
3 | CN(C)c1ccc(S(=O)(=O)c2ccc(CNC(=O)c3cnc4[nH]ncc4c3)cc2)cn1 [N-({4-[6-(dimethylamino)pyridine-3-sulfonyl]phenyl}methyl)-1H-pyrazolo[3,4-b]pyridine-5-carboxamide] |  |  | 3.3 | 30.5 | 
4 | Cc1ccc(F)cc1S(=O)(=O)c1ccc(CNC(=O)c2cc3ccncc3s2)cc1 [N-({4-[(5-fluoro-2-methylbenzene)sulfonyl]phenyl}methyl)thieno[2,3-c]pyridine-2-carboxamide] | 3 | 9.4 |  |  | 
5 | CCOc1cc(F)ccc1S(=O)(=O)c1ccc(CNC(=O)c2cc3cnccc3[nH]2)cc1 [N-({4-[(2-ethoxy-4-fluorobenzene)sulfonyl]phenyl}methyl)-1H-pyrrolo[3,2-c]pyridine-2-carboxamide] | 3.4 |  | 1.8 |  | 
6 | O=C(NCc1ccc(S(=O)(=O)c2cccc(N3CCOCC3)c2)cc1)c1ccc2ncsc2c1 [N-[(4-{[3-(morpholin-4-yl)benzene]sulfonyl}phenyl)methyl]-1,3-benzothiazole-6-carboxamide] |  |  | 1000 to 10000 | 40.1 | 
7 | O=C(NCc1ccc(S(=O)(=O)c2cncc(N3CCCC3)c2)cc1)c1ccc2ncsc2c1 [N-({4-[5-(pyrrolidin-1-yl)pyridine-3-sulfonyl]phenyl}methyl)-1,3-benzothiazole-6-carboxamide] |  |  | 100 to 1000 | 9.2 | 
8 | Cc1cncc(S(=O)(=O)c2ccc(CNC(=O)c3cc4ccncc4s3)cc2)c1 [N-{[4-(5-methylpyridine-3-sulfonyl)phenyl]methyl}thieno[2,3-c]pyridine-2-carboxamide] |  |  | 2.5 | 6 | 
9 | O=C(NCc1ccc(S(=O)(=O)c2ccc(C(F)(F)F)cc2)cc1)c1cc2ccncc2o1 |  |  | 19.8 | 8.7 | 
10 | O=C(NCc1ccc(S(=O)(=O)c2ccc(F)c(OCC(F)(F)F)c2)cc1)c1cnc2nccn2c1 |  |  | 6.5 | 2.4 | 
11 | COc1cc(OC)cc(S(=O)(=O)c2ccc(CNC(=O)c3cnc4[nH]ncc4c3)cc2)c1 | 2.6 |  | 2.2 |  | 
12 | O=C(NCc1ccc(S(=O)(=O)c2ccc3c(c2)OCO3)cc1)c1cnc2nccn2c1 [N-{[4-(2H-1,3-benzodioxole-5-sulfonyl)phenyl]methyl}imidazo[1,2-a]pyrimidine-6-carboxamide] |  |  | 11.7 | 3 | 
13 | COc1ccc(F)c(S(=O)(=O)c2ccc(CNC(=O)c3cnc4[nH]ncc4c3)cc2)c1 [N-({4-[(2-fluoro-5-methoxybenzene)sulfonyl]phenyl}methyl)-1H-pyrazolo[3,4-b]pyridine-5-carboxamide] | 139 |  | 100 to 1000 |  | 
14 | CCCCOc1cc(F)ccc1S(=O)(=O)c1ccc(CNC(=O)c2cc3ccncc3s2)cc1 | 7 |  | 6.3 |  | 
15 | CCCOc1ccc(S(=O)(=O)c2ccc(CNC(=O)c3cc4ccncc4o3)cc2)cc1F | 6.8 |  | 11.8 |  | 
16 | O=C(NCc1ccc(S(=O)(=O)c2cncc(F)c2)cc1)c1cnc2nccn2c1 [N-{[4-(5-fluoropyridine-3-sulfonyl)phenyl]methyl}imidazo[1,2-a]pyrimidine-6-carboxamide] |  |  | 56.4 | 6.7 | 
17 | Cc1ccc(C)c(S(=O)(=O)c2ccc(CNC(=O)c3cc4ccncc4s3)cc2)c1 [N-({4-[(2,5-dimethylbenzene)sulfonyl]phenyl}methyl)thieno[2,3-c]pyridine-2-carboxamide] | 11 | 8.6 |  |  | 

Row | Compound | IC50 (NAMPT; NAMPT enzymatic reaction) [nM] | IC50 (A2780 cells; [1]) [nM] | IC50 (A2780 cells; Homo sapiens, A2780, 72 h, SRB) [nM] | IC50 (NAMPT; NAMPT enzymatic assay) [nM] | IC50 (A2780 cells; SRB) [nM]
18 | O=C(NCc1ccc(S(=O)(=O)c2cccc3c2OCO3)cc1)c1ccc2nccn2c1 [N-{[4-(2H-1,3-benzodioxole-4-sulfonyl)phenyl]methyl}imidazo[1,2-a]pyridine-6-carboxamide] |  |  | 13 | 7.1 | 
19 | COc1ccc(C(C)C)cc1S(=O)(=O)c1ccc(CNC(=O)c2cnc3[nH]ncc3c2)cc1 [N-[(4-{[2-methoxy-5-(propan-2-yl)benzene]sulfonyl}phenyl)methyl]-1H-pyrazolo[3,4-b]pyridine-5-carboxamide] |  |  | 29.4 | 89.2 | 
20 | Cc1cc(C(F)(F)F)ccc1S(=O)(=O)c1ccc(CNC(=O)c2cnc3[nH]ncc3c2)cc1 [N-[(4-{[2-methyl-4-(trifluoromethyl)benzene]sulfonyl}phenyl)methyl]-1H-pyrazolo[3,4-b]pyridine-5-carboxamide] |  |  | 74.6 | 100 to 1000 | 
21 | Cc1cc(F)ccc1S(=O)(=O)c1ccc(CNC(=O)c2cc3ccncc3o2)cc1 | 18.7 |  | 65.1 |  | 
22 | CNS(=O)(=O)c1ccccc1S(=O)(=O)c1ccc(CNC(=O)c2cc3ccncc3o2)cc1 |  |  | 74 | 51.3 | 
23 | CC(=O)c1ccccc1S(=O)(=O)c1ccc(CNC(=O)c2cnc3[nH]ncc3c2)cc1 [N-({4-[(2-acetylbenzene)sulfonyl]phenyl}methyl)-1H-pyrazolo[3,4-b]pyridine-5-carboxamide] | 3.6 |  | 11.4 |  | 
24 | Cc1cc(S(=O)(=O)c2ccc(CNC(=O)c3cnc4nccn4c3)cc2)c(C)cc1F | 5.8 |  | 29.4 |  | 
25 | O=C(NCc1ccc(S(=O)(=O)c2cccc(-c3ccccc3)c2)cc1)c1ccc2ncsc2c1 [N-({4-[(3-phenylbenzene)sulfonyl]phenyl}methyl)-1,3-benzothiazole-6-carboxamide] | 18.5 |  | 1000 to 10000 |  | 
26 | CCNC(=O)c1ccc(S(=O)(=O)c2ccc(CNC(=O)c3cc4cnccc4[nH]3)cc2)cc1 |  |  | 14.1 | 14.5 | 
27 | CCOc1ccccc1S(=O)(=O)c1ccc(CNC(=O)c2ccc3nccn3c2)cc1 [N-({4-[(2-ethoxybenzene)sulfonyl]phenyl}methyl)imidazo[1,2-a]pyridine-6-carboxamide] | 20.3 |  | 3.39 |  | 
28 | N#CC1(c2ccc(S(=O)(=O)c3ccc(CNC(=O)c4cc5cnccc5[nH]4)cc3)cc2)CCCC1 |  |  | 18.9 | 60.1 | 
29 | Cc1ccc(Cl)c(S(=O)(=O)c2ccc(CNC(=O)c3cc4ccncc4o3)cc2)c1Cl | 10.8 |  | 16.2 |  | 
30 | CC(C)c1cccc(S(=O)(=O)c2ccc(CNC(=O)c3cnc4nccn4c3)cc2)c1 |  |  | 5.3 | 2.9 | 
31 | Cc1ccc(S(=O)(=O)c2ccc(CNC(=O)c3cc4ccncc4s3)cc2)c(F)c1 [N-({4-[(2-fluoro-4-methylbenzene)sulfonyl]phenyl}methyl)thieno[2,3-c]pyridine-2-carboxamide] | 8 | 20.7 |  |  | 
32 | O=C(NCc1ccc(S(=O)(=O)c2ccc(OC(F)(F)F)cc2)cc1)c1cc2ccncc2o1 |  |  |  | 9.4 | 27.7
33 | Cn1ncc(S(=O)(=O)c2ccc(CNC(=O)c3cnc4nccn4c3)cc2)c1C(F)(F)F [N-({4-[1-methyl-5-(trifluoromethyl)-1H-pyrazole-4-sulfonyl]phenyl}methyl)imidazo[1,2-a]pyrimidine-6-carboxamide] |  |  | 67.9 | 4 | 
34 | COc1cc(S(=O)(=O)c2ccc(CNC(=O)c3cc4ccncc4o3)cc2)ccc1F | 7.8 |  | 7 |  | 
